Converted amounts (≈) assume the structure as drawn. *1 amine or outer side, *2 acyl side, *3 side chain or, on linkers, in order; H or OH if unused. Where a SMILES comes first, the peptide text is derived from it. [ ]: non-standard residue; d: D form. ξ: configuration not given here. ξβ3hGly(tridecyl) = CCCCCCCCCCCCCC(CC(=O)[*:2])N[*:1]; ξβ3hGly(undecyl) = CCCCCCCCCCCC(CC(=O)[*:2])N[*:1]; X2 = CC(C)CCCCCCCCC[C@H](CC(=O)[*:2])N[*:1]; X6 = CCC(C)CCCCCCCCCCC(CC(=O)[*:2])N[*:1]; X4 = CC(C)CCCCCCCCCCC(CC(=O)[*:2])N[*:1]; X3 = CCC(C)CCCCCCCCC(CC(=O)[*:2])N[*:1]; X5 = CCCCCCCCCCCCC(CC(=O)[*:2])N[*:1]
How the values were obtained:
Candida albicans 7N = type: cell-based; conditions: for MIC: 7N
Method: (§1) The microbicidal spectrum of iturin A, which is the active ingredient in the antifungal agent for profound mycosis of the present invention, may be obtained, for example, from the minimum growth inhibiting concentration (MIC) of iturin A to various fungi such as clinically-isolated strains, animal-infected fungi and others to be obtained on the basis of the method as designated by Japan Chemotherapy Association.
(§2) The antifungal activity of iturin A as produced in Example 1 was measured to identify its antifungal activity. Precisely, the minimum growth inhibiting concentration (MIC) of iturin A4 against fungi was measured on the basis of the method as designated by Japan Chemotherapy Association, and the results shown in Table 6 below were obtained.
In addition, MIC of each of iturin A2 to iturin A8 against Candida albicans 7N was measured in the same manner as above, and the results shown in Table 7 below were obtained.
Fungi used: Candida albicans 7N
Medium used: 0.5% Glucose, Yeastnitrogen base (made by DIFCO Co.)

[1] = test system: Candida albicans IFM 40002; assay: minimum growth inhibiting concentration (MIC); type: cell-based
Method: as §1, §2

[2] = test system: Mucor guilliermondii IFO 9403; assay: minimum growth inhibiting concentration (MIC); type: cell-based
Method: as §1, §2

[3] = test system: Aspergillus fumigatus Tsukuba No. 12; assay: minimum growth inhibiting concentration (MIC); type: cell-based
Method: as §1, §2

C. glabrata IFM 40065 = assay: minimum growth inhibiting concentration (MIC); type: cell-based
Method: as §1, §2

[4] = test system: Cryptococcus neoformans IFM 40043; assay: minimum growth inhibiting concentration (MIC); type: cell-based
Method: as §1, §2

[5] = test system: Candida albicans IFM 40001; assay: minimum growth inhibiting concentration (MIC); type: cell-based
Method: as §1, §2

C. krusei IFM 40019 = assay: minimum growth inhibiting concentration (MIC); type: cell-based
Method: as §1, §2

C. tropicalis IFM 40018 = assay: minimum growth inhibiting concentration (MIC); type: cell-based
Method: as §1, §2

[6] = test system: Cryptococcus neoformans IFM 40038; assay: minimum growth inhibiting concentration (MIC); type: cell-based
Method: as §1, §2

A. flavas IAM 2044 = assay: minimum growth inhibiting concentration (MIC); type: cell-based
Method: as §1, §2

[7] = Acute Toxicity Test, oral single administration; type: in vivo, ddy-N mice; conditions: for Mortality (%) / Time-Dependent Mortality: oral 2,000 mg/kg once; for Time-Dependent Mortality: day 1; for LD50 (mg/kg): oral single administration
Method: Iturin A4 obtained in Example 1 was dissolved in an injectable distilled water to prepare an aqueous 10% (w/v) solution of iturin A4 to be tested. The test solution was forcedly oral-administered once to five male and five female ddy-N mice, after having been fasted for 13 hours, by the use of a stomach probe. The test ddy-N mice were about 4-week age ones and were obtained from Nippon Medico-Chemical Animal Sources Laboratories Co., Ltd. Prior to the test, all the test mice were preliminarily bred in the laboratory for one week so as to confirm the healthy condition of them. Then, the about 5-week age mice were subjected to the test. The body weight of the test mice just before the test was 28 g (male mice) and from 18 to 22 g (female mice).
To each of the male and female mice, the test solution was administered in an amount of 20 ml per kg of the body weight, whereby 2,000 mg/kg of the test substance was administered to them.

[8] = Acute toxicity, plural intravenous injections; type: in vivo, ddy-N mice; conditions: male mice, intravenous 30 mg/kg/day × 14 times
Method: (§3) In the next test, mice of the same kind as mentioned above were used. Iturin A4 was dissolved in DMSO(dimethylsulfoxide)-castor oil-5% Glc solution, and the resulting solution was injected to the caudal vein of each of the five male mice once or plural times. For the single injection, the solution was administered to the mice each in an amount of 200 mg per kg of the body weight; and for the plural injections, it was administered to them 14 times each in an amount of 30 mg/kg/day. After the injection(s), the time-dependent mortality of the test mice was observed and the results shown in Tables 10 and 11 below were obtained.

[9] = Acute toxicity, single intravenous injection; type: in vivo, ddy-N mice; conditions: male mice
Method: as §3

[10] = oral 2,000 mg/kg, male and female mice

For `CCCCCCCCCCCC1CC(=O)N[C@@H](CC(N)=O)C(=O)N[C@H](Cc2ccc(O)cc2)C(=O)N[C@H](CC(N)=O)C(=O)N[C@@H](CCC(N)=O)C(=O)N2CCC[C@H]2C(=O)N[C@H](CC(N)=O)C(=O)N[C@@H](CO)C(=O)N1` (stereo partly drawn) [Iturin A2, iturin A2] (cyclo(N[dY][dN]QP[dN]S[ξβ3hGly(undecyl)])), the “MIC” value (Candida albicans 7N) was 50 µg/mL (≈ 47.9 µM).
For `CCC(C)CCCCCCCCC1CC(=O)N[C@@H](CC(N)=O)C(=O)N[C@H](Cc2ccc(O)cc2)C(=O)N[C@H](CC(N)=O)C(=O)N[C@@H](CCC(N)=O)C(=O)N2CCC[C@H]2C(=O)N[C@H](CC(N)=O)C(=O)N[C@@H](CO)C(=O)N1` (stereo partly shown) [Iturin A3, iturin A3] (cyclo(N[dY][dN]QP[dN]S[X3])), the “MIC” value (Candida albicans 7N) was 50 µg/mL (≈ 47.3 µM).
In the case of `CC(C)CCCCCCCCC[C@@H]1CC(=O)N[C@@H](CC(N)=O)C(=O)N[C@H](Cc2ccc(O)cc2)C(=O)N[C@H](CC(N)=O)C(=O)N[C@@H](CCC(N)=O)C(=O)N2CCC[C@H]2C(=O)N[C@H](CC(N)=O)C(=O)N[C@@H](CO)C(=O)N1` [Iturin A4, iturin A4] (cyclo(N[dY][dN]QP[dN]S[X2])), the “MIC (μg/ml) of Iturin A4” value [1] is reported as 1.56 µg/mL, the “MIC (μg/ml) of Iturin A4” value [2] is reported as 1.2 µg/mL and the “MIC (μg/ml) of Iturin A4” value [3] is reported as 6.25 µg/mL. For the same compound, the “MIC (μg/ml) of Iturin A4” value (C. glabrata IFM 40065) was 6.25 µg/mL, the “MIC (μg/ml) of Iturin A4” value [4] was 0.78 µg/mL and the “MIC (μg/ml) of Iturin A4” value [5] was < 0.05 µg/mL. For the same compound, the “MIC (μg/ml) of Iturin A4” value (C. krusei IFM 40019) was 25 µg/mL, the “MIC (μg/ml) of Iturin A4” value (C. tropicalis IFM 40018) was 6.25 µg/mL and the “MIC (μg/ml) of Iturin A4” value [6] was 3.13 µg/mL. For the same compound, the “MIC (μg/ml) of Iturin A4” value (A. flavas IAM 2044) was 2.4 µg/mL, the “Mortality (%)” value ([7]; female mice) was 0% and the “Time-Dependent Mortality” value ([7]; female mice) was 0/5. The “LD50 (mg/kg)” value ([7]; female mice) was > 2,000 mg/kg, the “Mortality (%)” value ([7]; male mice) was 0% and the “Time-Dependent Mortality” value ([7]; male mice) was 0/5. For the same compound, the “LD50 (mg/kg)” value ([7]; male mice) was > 2,000 mg/kg, the “time until vitality came back to normal after the administration” value [7, 10] was 2 h and the “vitality of the test mice just after the administration” value [7, 10] was “lowered slightly”. The “Mortality (%)” value [8] was 0%, the “Time-Dependent Mortality” value ([8]; 14 days) was 0/5 and the “Time-Dependent Mortality” value ([8]; day 1) was 0/5. For the same compound, the “MIC (μg/ml) of Iturin A4” value (Candida albicans 7N; Candida albicans 7N (Table 6)) was 25 µg/mL, the “LD50” value ([9]; single intravenous injection) was > 200 mg/kg and the “Mortality (%)” value ([9]; single intravenous injection 200 mg/kg) was 0%. For the same compound, the “Time-Dependent Mortality” value ([9]; single intravenous injection 200 mg/kg, day 1) was 0/5.
For `CCCCCCCCCCCCC1CC(=O)N[C@@H](CC(N)=O)C(=O)N[C@H](Cc2ccc(O)cc2)C(=O)N[C@H](CC(N)=O)C(=O)N[C@@H](CCC(N)=O)C(=O)N2CCC[C@H]2C(=O)N[C@H](CC(N)=O)C(=O)N[C@@H](CO)C(=O)N1` (stereo partly shown) [Iturin A5, iturin A5] (cyclo(N[dY][dN]QP[dN]S[X5])), the “MIC” value (Candida albicans 7N) was 25 µg/mL (≈ 23.6 µM).
In the case of `CC(C)CCCCCCCCCCC1CC(=O)N[C@@H](CC(N)=O)C(=O)N[C@H](Cc2ccc(O)cc2)C(=O)N[C@H](CC(N)=O)C(=O)N[C@@H](CCC(N)=O)C(=O)N2CCC[C@H]2C(=O)N[C@H](CC(N)=O)C(=O)N[C@@H](CO)C(=O)N1` (stereo partly shown) [Iturin A6, iturin A6] (cyclo(N[dY][dN]QP[dN]S[X4])), the “MIC” value (Candida albicans 7N) is reported as 12.5 µg/mL (≈ 11.7 µM).
For `CCCCCCCCCCCCCC1CC(=O)N[C@@H](CC(N)=O)C(=O)N[C@H](Cc2ccc(O)cc2)C(=O)N[C@H](CC(N)=O)C(=O)N[C@@H](CCC(N)=O)C(=O)N2CCC[C@H]2C(=O)N[C@H](CC(N)=O)C(=O)N[C@@H](CO)C(=O)N1` (stereo partly drawn) [Iturin A7, iturin A7] (cyclo(N[dY][dN]QP[dN]S[ξβ3hGly(tridecyl)])), the “MIC” value (Candida albicans 7N) was 6.25 µg/mL (≈ 5.83 µM).
For `CCC(C)CCCCCCCCCCC1CC(=O)N[C@@H](CC(N)=O)C(=O)N[C@H](Cc2ccc(O)cc2)C(=O)N[C@H](CC(N)=O)C(=O)N[C@@H](CCC(N)=O)C(=O)N2CCC[C@H]2C(=O)N[C@H](CC(N)=O)C(=O)N[C@@H](CO)C(=O)N1` (stereo partly shown) [Iturin A8, iturin A8] (cyclo(N[dY][dN]QP[dN]S[X6])), the “MIC” value (Candida albicans 7N) was 12.5 µg/mL (≈ 11.5 µM).

Source: patent US5470827A, “Method of producing iturin A and antifungal agent for profound mycosis” (Higeta Shoyu Co., Ltd., priority 1993, dated 1995)
